This series concerns target antigen-expressing cell line. Briefly: Jurkat NFAT-GFP assay, coculture with target cell lines expressing the respective target antigen (summary Table 10A). The series is classed as cell-based, human. To be noted: relative % GFP positive cells; for NFAT-GFP ASSAY Positive Cell lines: NALM6: SIR-expressing Jurkat-NFAT-GFP cells cocultured with NALM6. On the set-up: key: The signs +/−, +, 2+ etc. after the name of the cell lines indicate the relative degree of positivity on the Jurkat-NFAT-GFP assay as measured by the % GFP positive cells; +: relative degree of positivity on the Jurkat-NFAT-GFP assay as measured by the % GFP positive cells; 2+: relative degree of positivity on the Jurkat-NFAT-GFP assay as measured by the % GFP positive cells. The method, then:
(B) Induction of NFAT promoter driven GFP expression. The control vector- and SIR-expressing Jurkat-NFAT-GFP cocultured for 4-24 hours with the target antigen-expressing cell line (described above) and their ability to bind to the target antigen is assayed by measuring induction of GFP expression using Flow Cytometry. Cellular supernatant is collected and assayed for the induction of cytokines (e.g., IL2).
Jurkat NFAT-GFP Assay For Synthetic Immune Receptors. The Jurkat-NFAT-GFP cells are engineered in such a way that the IL-2 promoter, which carries NFAT binding sites, is cloned upstream of the GFP gene. These cells have been used to study signaling via TCR and CAR. The different SIRs were stably expressed in Jurkat NFAT-GFP cells by lentiviral mediated gene transfer, followed by selection with puromycin. The SIR-expressing Jurkat-NFAT-GFP cells were cocultured with the target cells at E:T ratio of approximately 1:2 for approximately 4 hours to 18 hours. When the interaction between SIRs and their target antigen results in activation of the NFAT pathway, GFP expression is induced.
Induction of GFP expression by coculturing of Jurkat-NFAT-GFP cells expressing different SIR constructs and the different target cells was studied essentially as described previously (Wu, Roybal, Puchner, Onuffer, & Lim, 2015). GFP expression was monitored by FACS analysis. A few representative examples of this assay are shown in the FIG. 13A-B. In panel A, control Jurkat-NFAT-GFP cells or those expressing SIRs targeting CD19 (clone ID 051716-I08), MPL (Clone ID: 040716-A07) and BCMA (Clone ID: 011116-A07) were incubated with RAJI (top), HEL (middle) or U266 (bottom) cells, respectively. […] In panel B, Jurkat cells expressing SIR targeting CDH6 (Clone ID: 051716-J05), CD276 (Clone ID: 050516-Q06) and Her2/neu (Clone ID: 050516-I03) were incubated with SKOV3 (top) and […] (middle and bottom) cells, respectively. […] The Jurkat-NFAT-GFP cells were engineered to express different SIRs targeting other antigens and the experiment repeated upon coculture with the target cells expressing their respective target antigen. The Jurkat-NFAT-GFP (parental) cells were used as control. The names of different SIRs, their SEQ ID NOs, component antigen binding domains and TCR chains can be determined by reference to Tables 7A-7H. A SIR is considered positive in the assay in case the SIR expressing Jurkat-NFAT-GFP cells show greater % GFP positive cells when cultured with the target cell line as compared to parental Jurkat-NFAT-GFP cells. […] The signs +/−, +, 2+ etc. after the name of the cell lines indicate the relative degree of positivity on the Jurkat-NFAT-GFP assay as measured by the % GFP positive cells after culture of the SIR expressing Jurkat-NFAT-GFP cells with that cell line. […] In addition, great diversity of response against the same target cell line is observed with Jurkat cells expressing SIRs containing different antigen binding domains targeting the same antigen (e.g., SIRs having antigen binding domains derived form different CD19 antibodies) even when the SIRs share the same TCR chains and linkers. Finally, Jurkat cells expressing SIRs targeting different antigens (e.g. CD19 vs CD20) show a diversitiy of response when exposed to the same target cell line. Thus, a diverse immune response can be generated against a single target cell by combining SIRs with different TCR chains, linkers, antigen binding domains and target specificity. Table 10A also summarizes the results of GLuc based T cell cytotoxicity assay observed with different SIRs when exposed to their target cell lines. […]

“CD8SP-CD19Bu12-vL-V5-[TCRb-S57C-opt1]-F-P2A-SP-CD19Bu12-vH-Myc-[TCRa-T48C-opt1]-F-F2A-PAC [SEQ ID NO:1021]”: the “NFAT-GFP ASSAY Positive Cell lines: NALM6” value is reported as “(2+)”.
Consider “CD8SP-FMC63-vL-V5-[TCRb-S57C-opt1]-F-P2A-SP-FMC63-vH-Myc-[TCRa-T48C-opt1]-F-F2A-PAC [SEQ ID NO:900]”, for which the “NFAT-GFP ASSAY Positive Cell lines: NALM6” value is given as “RAJI(2+), NALM6(2+)”. Further, the “NFAT-GFP ASSAY Positive Cell lines: RAJI” value (SIR-expressing Jurkat-NFAT-GFP cells cocultured with RAJI) is listed as “RAJI(2+), NALM6(2+)”.

Source of the values: patent US12269859B2, “Synthetic immune receptors and methods of use thereof” (Angeles Therapeutics, Inc., priority 2016, dated 2025).
